Values quoted from earlier work in patent US20160281133A1, “STABILIZATION AND ISOLATION OF EXTRACELLULAR NUCLEIC ACIDS” (QIAGEN GMBH, priority 2013, published 2016).
pIC50, pKi: −log10 of the molar value. Read-outs that look alike come from different tables or passages of the source. Where a SMILES comes first, the peptide text is derived from it. [ ]: non-standard residue; d: D form. Nle = CCCC[CH](N)C(=O)O

Legend:
calpain II = target: T1, calpain II (Homo sapiens, UniProt P17655); conditions: cited from earlier work
T1 sequence (P17655 1-700): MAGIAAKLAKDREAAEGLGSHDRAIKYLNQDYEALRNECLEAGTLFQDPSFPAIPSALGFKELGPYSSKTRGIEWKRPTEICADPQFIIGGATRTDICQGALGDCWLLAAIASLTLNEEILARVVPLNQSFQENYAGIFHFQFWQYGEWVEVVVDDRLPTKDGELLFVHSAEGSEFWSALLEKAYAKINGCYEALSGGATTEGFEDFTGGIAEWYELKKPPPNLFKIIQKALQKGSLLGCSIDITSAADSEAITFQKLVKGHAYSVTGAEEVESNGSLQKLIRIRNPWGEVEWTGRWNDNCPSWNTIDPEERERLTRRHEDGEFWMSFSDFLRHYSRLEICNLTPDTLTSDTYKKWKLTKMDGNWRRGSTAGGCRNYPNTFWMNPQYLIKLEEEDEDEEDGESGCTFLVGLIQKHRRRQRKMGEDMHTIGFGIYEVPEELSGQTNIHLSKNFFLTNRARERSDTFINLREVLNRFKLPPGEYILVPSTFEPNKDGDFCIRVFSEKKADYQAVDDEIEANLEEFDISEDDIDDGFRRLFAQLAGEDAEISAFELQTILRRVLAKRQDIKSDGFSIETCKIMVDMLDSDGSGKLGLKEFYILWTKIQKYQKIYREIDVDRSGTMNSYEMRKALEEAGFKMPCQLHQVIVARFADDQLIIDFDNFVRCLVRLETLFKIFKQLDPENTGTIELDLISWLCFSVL
T1 sequence (P04632 1-268 partner): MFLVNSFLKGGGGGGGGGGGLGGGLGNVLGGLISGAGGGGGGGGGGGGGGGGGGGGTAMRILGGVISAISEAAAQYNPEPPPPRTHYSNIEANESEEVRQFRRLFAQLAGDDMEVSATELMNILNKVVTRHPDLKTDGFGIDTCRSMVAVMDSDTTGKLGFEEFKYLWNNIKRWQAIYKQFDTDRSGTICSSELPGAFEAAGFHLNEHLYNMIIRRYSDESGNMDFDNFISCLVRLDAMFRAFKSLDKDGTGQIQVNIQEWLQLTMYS

calpain I = calpain I (Homo sapiens, UniProt P07384); conditions: cited from earlier work
cathepsin L = cathepsin L (Homo sapiens, UniProt P07711); conditions: cited from earlier work
COX-2 = conditions: cited from earlier work
COX-1 = COX-1 (Homo sapiens, UniProt P23219); conditions: cited from earlier work
caspase-2 = target: T2, caspase-2 (Homo sapiens, UniProt P42575); conditions: cited from earlier work
T2 sequence (P42575 170-325 limits assumed): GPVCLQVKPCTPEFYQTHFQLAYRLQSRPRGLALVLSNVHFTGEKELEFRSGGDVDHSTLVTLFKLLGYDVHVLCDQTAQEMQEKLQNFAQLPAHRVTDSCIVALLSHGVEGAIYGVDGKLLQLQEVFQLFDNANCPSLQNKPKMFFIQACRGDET
T2 sequence (P42575 348-452 limits assumed): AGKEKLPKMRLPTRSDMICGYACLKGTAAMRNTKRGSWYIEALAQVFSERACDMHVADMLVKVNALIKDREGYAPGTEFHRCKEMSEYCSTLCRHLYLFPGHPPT

caspase-3 = target: T3, caspase-3 (Homo sapiens, UniProt P42574); conditions: cited from earlier work
T3 sequence (P42574 29-175 limits assumed): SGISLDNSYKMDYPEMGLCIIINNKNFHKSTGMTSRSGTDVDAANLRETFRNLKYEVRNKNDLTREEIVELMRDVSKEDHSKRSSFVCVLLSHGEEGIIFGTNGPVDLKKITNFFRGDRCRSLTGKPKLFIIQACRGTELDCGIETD
T3 sequence (P42574 176-277 limits assumed): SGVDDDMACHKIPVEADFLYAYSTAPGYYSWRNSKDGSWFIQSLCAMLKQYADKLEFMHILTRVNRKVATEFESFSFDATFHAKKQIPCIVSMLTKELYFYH

caspase-7 = target: T4, caspase-7 (Homo sapiens, UniProt P55210); conditions: cited from earlier work
T4 sequence (P55210 24-198 limits assumed): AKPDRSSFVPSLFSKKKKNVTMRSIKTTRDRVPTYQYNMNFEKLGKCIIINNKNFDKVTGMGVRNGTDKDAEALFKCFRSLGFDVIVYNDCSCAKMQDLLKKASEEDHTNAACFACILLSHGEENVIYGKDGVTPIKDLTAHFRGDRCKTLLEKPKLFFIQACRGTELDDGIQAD
T4 sequence (P55210 207-303 limits assumed): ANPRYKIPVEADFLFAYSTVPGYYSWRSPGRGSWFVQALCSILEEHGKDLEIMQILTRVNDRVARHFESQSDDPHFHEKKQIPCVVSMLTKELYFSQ

myocardial infarct size = conditions: during reperfusion; cited from earlier work
caspase-1 [1] = target: T5, caspase-1 (Homo sapiens, UniProt P29466); conditions: cited from earlier work
T5 sequence (P29466 120-297 limits assumed): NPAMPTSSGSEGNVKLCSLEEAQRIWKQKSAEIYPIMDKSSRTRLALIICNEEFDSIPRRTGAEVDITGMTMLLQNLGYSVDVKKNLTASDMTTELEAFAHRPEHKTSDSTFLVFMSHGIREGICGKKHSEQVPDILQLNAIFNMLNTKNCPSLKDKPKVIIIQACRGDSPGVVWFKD
T5 sequence (P29466 317-404 limits assumed): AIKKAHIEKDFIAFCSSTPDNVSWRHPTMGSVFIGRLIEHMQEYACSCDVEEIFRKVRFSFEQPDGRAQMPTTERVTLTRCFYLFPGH

pancreatic duct cells = conditions: cited from earlier work
LDH % release = conditions: cited from earlier work
[2] = test system: TNF-induced PMN-EC adhesion; conditions: cited from earlier work
PI3K = conditions: cited from earlier work
PKC = conditions: cited from earlier work
proliferation = conditions: cited from earlier work
[3] = test system: TNF-induced inhibition of DNA synthesis; conditions: cited from earlier work
caspase-1 [4] = target: T5, caspase-1; conditions: cited from earlier work; remark: listed apart in the source
caspase-10 = target: T6, caspase-10 (Homo sapiens, UniProt Q92851); conditions: value type not repeated in the cell; cited from earlier work
T6 sequence (Q92851 220-415 limits assumed): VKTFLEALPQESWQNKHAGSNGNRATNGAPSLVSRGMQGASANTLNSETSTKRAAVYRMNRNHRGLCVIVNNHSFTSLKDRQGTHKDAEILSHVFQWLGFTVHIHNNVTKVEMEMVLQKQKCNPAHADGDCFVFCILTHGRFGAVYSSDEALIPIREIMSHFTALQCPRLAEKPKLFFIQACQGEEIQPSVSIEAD
T6 sequence (Q92851 416-521 limits assumed): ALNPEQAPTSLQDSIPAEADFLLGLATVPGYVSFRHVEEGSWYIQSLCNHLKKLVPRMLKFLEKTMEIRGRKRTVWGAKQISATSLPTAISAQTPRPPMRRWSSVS

[5] = test system: various other serine proteases; conditions: cited from earlier work
[6] = target: T7, Omi/HtrA2 (His-Omi134-458) (Homo sapiens, UniProt O43464); conditions: for His-Omi134-458; cited from earlier work
T7 construct: His-Omi134-458; His (N)

Bax-mediated apoptosis = conditions: functions as effectively as Caspase Inhibitor VI (Z-VAD-FMK); cited from earlier work
anthrax lethal factor = anthrax lethal factor (Bacillus anthracis, UniProt P15917); conditions: cited from earlier work
caspase-8 = caspase-8 (Homo sapiens, UniProt Q14790); conditions: cited from earlier work
Stat3 = Stat3 (Homo sapiens, UniProt P40763); conditions: read-out: DB50 (concentration of peptide at which DNA-binding activity is inhibited by 50%); cited from earlier work
[7] = in neuron culture medium at 37° C.; cited from earlier work
[8] = test system: etoposide-induced cortical neuron death; conditions: cited from earlier work

T7 sequence (O43464 134-458): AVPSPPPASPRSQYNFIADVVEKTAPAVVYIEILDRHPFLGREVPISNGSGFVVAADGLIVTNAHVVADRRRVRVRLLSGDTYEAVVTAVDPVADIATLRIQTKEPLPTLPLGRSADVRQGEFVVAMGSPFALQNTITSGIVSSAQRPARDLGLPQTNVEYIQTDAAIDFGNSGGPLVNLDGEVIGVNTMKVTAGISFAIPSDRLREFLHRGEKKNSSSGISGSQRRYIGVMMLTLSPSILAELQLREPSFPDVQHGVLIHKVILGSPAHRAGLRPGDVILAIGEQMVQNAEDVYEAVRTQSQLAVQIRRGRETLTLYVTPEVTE
Chain of COX-1 (P23219 24-599): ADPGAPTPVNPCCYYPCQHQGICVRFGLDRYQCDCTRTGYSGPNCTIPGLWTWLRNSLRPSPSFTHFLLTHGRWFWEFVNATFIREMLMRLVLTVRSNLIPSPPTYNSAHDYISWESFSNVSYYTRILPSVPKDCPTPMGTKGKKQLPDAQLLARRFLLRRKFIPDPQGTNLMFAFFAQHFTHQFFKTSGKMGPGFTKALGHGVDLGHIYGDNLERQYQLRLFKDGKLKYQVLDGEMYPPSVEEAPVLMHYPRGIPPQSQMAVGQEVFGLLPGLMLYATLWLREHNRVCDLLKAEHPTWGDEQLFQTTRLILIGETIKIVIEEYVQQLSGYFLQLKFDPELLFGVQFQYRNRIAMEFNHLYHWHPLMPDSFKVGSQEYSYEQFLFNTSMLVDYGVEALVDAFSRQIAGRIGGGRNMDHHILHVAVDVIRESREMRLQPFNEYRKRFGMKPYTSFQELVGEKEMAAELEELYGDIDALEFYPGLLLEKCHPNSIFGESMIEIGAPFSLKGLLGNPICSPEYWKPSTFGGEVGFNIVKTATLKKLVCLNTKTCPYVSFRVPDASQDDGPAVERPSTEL
Chain of calpain I (P07384 whole entry, one chain of several): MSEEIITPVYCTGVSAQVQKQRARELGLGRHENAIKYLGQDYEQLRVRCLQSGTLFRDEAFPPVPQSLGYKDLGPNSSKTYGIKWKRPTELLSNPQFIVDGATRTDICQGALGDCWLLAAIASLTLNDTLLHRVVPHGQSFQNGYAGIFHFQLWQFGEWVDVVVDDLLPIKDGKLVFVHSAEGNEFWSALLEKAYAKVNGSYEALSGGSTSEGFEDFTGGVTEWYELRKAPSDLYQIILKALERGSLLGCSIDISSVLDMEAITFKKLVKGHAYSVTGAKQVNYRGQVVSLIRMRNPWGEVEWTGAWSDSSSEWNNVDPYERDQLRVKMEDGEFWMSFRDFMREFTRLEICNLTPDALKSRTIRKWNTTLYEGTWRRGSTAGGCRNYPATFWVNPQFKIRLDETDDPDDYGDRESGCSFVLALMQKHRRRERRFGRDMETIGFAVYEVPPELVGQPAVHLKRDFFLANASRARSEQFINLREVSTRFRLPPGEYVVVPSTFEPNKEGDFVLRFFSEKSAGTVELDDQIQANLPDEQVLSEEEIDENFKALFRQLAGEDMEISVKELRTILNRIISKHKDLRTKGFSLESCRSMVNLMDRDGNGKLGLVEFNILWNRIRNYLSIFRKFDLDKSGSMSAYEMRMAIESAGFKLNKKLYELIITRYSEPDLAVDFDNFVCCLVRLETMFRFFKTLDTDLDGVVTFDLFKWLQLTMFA
Chain of cathepsin L (P07711 114-333, species assumed): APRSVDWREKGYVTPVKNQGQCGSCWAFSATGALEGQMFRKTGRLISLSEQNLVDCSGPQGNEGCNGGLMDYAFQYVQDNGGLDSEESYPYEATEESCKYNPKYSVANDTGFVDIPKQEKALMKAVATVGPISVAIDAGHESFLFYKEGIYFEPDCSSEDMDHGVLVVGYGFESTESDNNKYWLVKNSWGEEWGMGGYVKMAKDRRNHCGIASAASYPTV
Chain of caspase-8 (Q14790 217-374 limits assumed, species assumed): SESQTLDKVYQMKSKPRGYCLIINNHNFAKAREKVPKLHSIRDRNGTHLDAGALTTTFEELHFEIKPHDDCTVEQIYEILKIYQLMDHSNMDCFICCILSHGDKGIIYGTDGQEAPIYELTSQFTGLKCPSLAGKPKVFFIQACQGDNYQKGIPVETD
Chain of caspase-8 (Q14790 385-479 limits assumed, species assumed): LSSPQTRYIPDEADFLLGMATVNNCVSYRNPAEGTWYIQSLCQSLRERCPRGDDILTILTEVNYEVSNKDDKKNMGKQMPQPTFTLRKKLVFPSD
Chain of Stat3 (P40763 whole entry, species assumed): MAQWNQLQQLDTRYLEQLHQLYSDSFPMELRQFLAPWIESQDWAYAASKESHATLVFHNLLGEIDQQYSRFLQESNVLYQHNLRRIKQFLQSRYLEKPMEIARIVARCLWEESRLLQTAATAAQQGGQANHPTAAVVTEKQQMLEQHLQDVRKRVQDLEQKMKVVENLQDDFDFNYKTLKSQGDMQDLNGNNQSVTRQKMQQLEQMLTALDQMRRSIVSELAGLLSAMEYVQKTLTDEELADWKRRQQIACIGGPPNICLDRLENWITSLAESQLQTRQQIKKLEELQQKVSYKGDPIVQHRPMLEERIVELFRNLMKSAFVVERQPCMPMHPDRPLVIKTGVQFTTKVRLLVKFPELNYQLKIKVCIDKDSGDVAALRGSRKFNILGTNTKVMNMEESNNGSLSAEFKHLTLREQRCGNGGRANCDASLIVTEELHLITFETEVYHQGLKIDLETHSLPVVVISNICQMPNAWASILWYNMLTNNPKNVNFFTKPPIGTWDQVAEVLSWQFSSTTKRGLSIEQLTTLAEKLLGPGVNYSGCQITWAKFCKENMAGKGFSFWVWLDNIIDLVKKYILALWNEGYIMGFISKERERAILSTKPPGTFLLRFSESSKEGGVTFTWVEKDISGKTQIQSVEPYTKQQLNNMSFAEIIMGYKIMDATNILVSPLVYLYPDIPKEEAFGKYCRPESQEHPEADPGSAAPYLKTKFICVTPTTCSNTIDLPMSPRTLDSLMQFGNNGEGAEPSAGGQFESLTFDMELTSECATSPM
Chain of anthrax lethal factor (P15917 34-809 limits assumed): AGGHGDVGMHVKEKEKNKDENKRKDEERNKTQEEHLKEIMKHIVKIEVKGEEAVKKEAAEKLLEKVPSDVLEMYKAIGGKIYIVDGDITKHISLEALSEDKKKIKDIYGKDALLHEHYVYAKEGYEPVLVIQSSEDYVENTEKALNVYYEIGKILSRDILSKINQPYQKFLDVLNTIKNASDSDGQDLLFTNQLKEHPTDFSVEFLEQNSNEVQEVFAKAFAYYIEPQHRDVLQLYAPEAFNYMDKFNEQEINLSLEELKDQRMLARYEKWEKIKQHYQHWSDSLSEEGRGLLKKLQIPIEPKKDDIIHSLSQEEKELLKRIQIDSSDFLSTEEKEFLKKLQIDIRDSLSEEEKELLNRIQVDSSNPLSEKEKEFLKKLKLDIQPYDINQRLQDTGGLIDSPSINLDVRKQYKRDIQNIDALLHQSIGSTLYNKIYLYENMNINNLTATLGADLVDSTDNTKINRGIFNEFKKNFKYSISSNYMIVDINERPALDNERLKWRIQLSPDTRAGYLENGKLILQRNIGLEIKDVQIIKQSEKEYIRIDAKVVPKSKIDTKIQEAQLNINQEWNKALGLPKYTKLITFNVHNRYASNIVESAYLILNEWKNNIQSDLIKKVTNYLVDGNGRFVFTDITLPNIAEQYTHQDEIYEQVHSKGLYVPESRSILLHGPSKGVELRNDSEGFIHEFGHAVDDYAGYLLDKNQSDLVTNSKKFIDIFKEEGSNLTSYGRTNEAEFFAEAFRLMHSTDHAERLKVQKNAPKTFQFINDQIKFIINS

## CCCCC(C=O)NC(=O)C(CC(C)C)NC(=O)C(CC(C)C)NC(C)=O (stereo not drawn) [Ac-Leu-Leu-Nle-al] (Ac-Leu-Leu-[Nle]-aldehyde; configuration not given here)
Calpain II
  pKi: 6.82
Calpain I
  pKi: 6.72
Cathepsin L
  pKi: 9.30

## O=c1c(O)c(-c2ccc(O)cc2)oc2cc(O)cc(O)c12 [Kaempferol]
COX-2
  pIC50: > 4.82
COX-1
  pIC50: 3.74

## Ac-Val-Asp-Val-Ala-Asp-CHO (Ac-VDVAD-aldehyde) [Caspase Inhibitor VIII]
caspase-2
  pKi: 8.46
caspase-3
  pKi: 9.00
caspase-7
  pKi: 8.12

## Ac-Leu-Glu-His-Asp-CMK (LEHD; HELM PEPTIDE1{[ac].L.E.H.D.[ClC[*:1]]}$$$$V2.0; SMILES CC(=O)N[C@@H](CC(C)C)C(=O)N[C@@H](CCC(=O)O)C(=O)N[C@@H](Cc1c[nH]cn1)C(=O)N[C@@H](CC(=O)O)C(=O)CCl) [Caspase-9 Inhibitor III]
Myocardial infarct size
  concentration reported to reduce myocardial infarct size: myocardial infarct size during reperfusion (~70 nM).

## Ac-Tyr-Val-Ala-Asp-CHO [Caspase-1 Inhibitor I]
caspase-1 [1]
  pKi: 9.70

## CCN1C(=O)C=CC1=O [N-Ethylmaleimide]
Pancreatic duct cells
  pIC50: 4.66

## O=c1c(O)c(-c2ccc(O)c(O)c2)oc2cc(O)cc(O)c12 [Quercetin(Sophoretin), Quercetin]
LDH % release
  pIC50: 6.10
[2]
  pIC50: 4.78
PI3K
  pIC50: 5.42
PKC
  IC50: 15 μg/ml. It strongly abrogated PI3K and Src kinases, mildly
proliferation
  pIC50: 4.94
[3]
  pIC50: 5.21

## Ac-Ile-Glu-Thr-Asp-CHO (Ac-IETD-aldehyde) [Granzyme B Inhibitor II]
caspase-1 [4]
  pKi: > 8.22
caspase-10
  pKi: 7.57

## O=C1C(=Cc2ccc(-c3ccccc3[N+](=O)[O-])o2)C(=O)N(c2ccccc2)C(=S)N1c1ccccc1 [Omi/HtrA2 Protease Inhibitor, Ucf-101]
[5]
  pIC50: ≤ 3.70
[6]
  pIC50: 5.02

## H-Val-Pro-Met-Leu-Lys-OH (H-VPMLK-OH) [Bax-Inhibiting Peptide, V5]
Bax-mediated apoptosis
  concentration effective for Bax-mediated apoptosis: mediated apoptosis (~50-200 μM). Also effectively blocks caspase-

## FC(F)(F)c1cccc(-c2csc(C3COc4ccccc4O3)n2)c1 (stereo not shown) [Caspase Inhibitor X]
Anthrax lethal factor
  effect on activity of anthrax lethal factor: assisted cleavage of BID, a proapoptotic protein. Weakly affects
caspase-8
  pKi: 5.57

## Ac-Pro-Tyr(PO3H2)-Leu-Lys-Thr-Lys-OH (PYLKTK; HELM PEPTIDE1{[ac].P.[O=C([C@H](Cc1ccc(OP(=O)(O)O)cc1)N[*:1])[*:2]].L.K.T.K}$$$$V2.0; SMILES CC(=O)N1CCC[C@H]1C(=O)N[C@@H](Cc1ccc(OP(=O)(O)O)cc1)C(=O)N[C@@H](CC(C)C)C(=O)N[C@@H](CCCCN)C(=O)N[C@H](C(=O)N[C@@H](CCCCN)C(=O)O)[C@@H](C)O) [STAT3 Inhibitor Peptide]
Stat3
  pIC50: 3.63

## O=[N+]([O-])c1ccc(-c2cn3c4c(sc3n2)CCCC4)cc1 [Pifithrin-α, p-Nitro, Cyclic]
[7]
  longer half-life than Pifithrin-α: 50%
  t½: 6 h
[8]
  higher potency than Pifithrin-α: A cell-permeable p53 inhibitor that exhibits 10-fold higher potency
